One may read the IC50 as the midpoint of a concentration-inhibition curve. By Ki is commonly meant a measure of affinity in units of concentration, obtained from inhibition or displacement. Low readings indicate tighter binding, high ones weaker binding.

The target in test [1] is T1, LRRK2 (Homo sapiens, UniProt Q5S007). Nature of the test: LRRK2 protein kinase assay ([γ-33P] ATP, peptide substrate), IC50. Type of test: biochemical. Particulars: LRRK2 form (G2019S or wild type) not given; read-out: Potency scores (LRRK2 IC50). Set-up: Potency scores (LRRK2 IC50); the wild type has the same borders, PV4873; fused on or other part: GST tag. An excerpt:
All LRRK2 protein kinases were of human origin and were sourced from Invitrogen Corporation (Carlsbad, Calif. 92008 USA) unless otherwise indicated. The active mutant used was recombinant human, catalytic domain (amino acids 970-2527) containing a G2019S mutation, GST-tagged, expressed in insect cells (Invitrogen Cat#PV4881). The wild type used was recombinant human, catalytic domain (amino acids 970-2527) GST—tagged, expressed in insect cells (Invitrogen Cat#PV4873). The kinase dead mutant used was recombinant human, catalytic domain (amino acids 970-2527) containing a D1994A mutation, GST-tagged, expressed in insect cells (Invitrogen Cat#PM4041AE). No special measures were taken to activate any of the kinases.
All assays were carried out at room temperature ([…]) and were linear with respect to time and enzyme concentration under the conditions used. Assays were performed for 180 min in a 96 well format. LRRK2 was present at a concentration of approximately 5 nM.
The enzyme was diluted and assayed in 50 mM Tris-HCl pH7.5, 0.1 mM EGTA, 1 mM DTT and 10 mM MgCl2. The concentration of magnesium chloride in the assay was 10 mM. The [γ-33P] ATP (0.4 μCi/well) was used at 134 uM for G2019S mutant and at 57 μM for the wild type kinase in order to be at Km. The peptide substrate in the assay was […] at 100 μM.
The assays were initiated with Mg/ATP and stopped by the addition of 25 μl/well 50% orthophosphoric acid. Reactions were harvested onto Whatman P81 Unifilter Plates (Fisher Scientific. Loughborough, LE115RG, UK. Cat# FDU-105-020U) using a Tomtec harvester (Tomtec Hamden, Conn. 06514. USA). Plates were counted using a Perkin Elmer Top Count NX7. (Perkin Elmer, Shelton CT 06484-4794 USA)
IC50 values of inhibitors were determined after carrying out assays at 10 different concentrations of each compound in duplicate.
Target sequence in this assay (Q5S007 whole entry G2019S, form open, the tested form may be a part): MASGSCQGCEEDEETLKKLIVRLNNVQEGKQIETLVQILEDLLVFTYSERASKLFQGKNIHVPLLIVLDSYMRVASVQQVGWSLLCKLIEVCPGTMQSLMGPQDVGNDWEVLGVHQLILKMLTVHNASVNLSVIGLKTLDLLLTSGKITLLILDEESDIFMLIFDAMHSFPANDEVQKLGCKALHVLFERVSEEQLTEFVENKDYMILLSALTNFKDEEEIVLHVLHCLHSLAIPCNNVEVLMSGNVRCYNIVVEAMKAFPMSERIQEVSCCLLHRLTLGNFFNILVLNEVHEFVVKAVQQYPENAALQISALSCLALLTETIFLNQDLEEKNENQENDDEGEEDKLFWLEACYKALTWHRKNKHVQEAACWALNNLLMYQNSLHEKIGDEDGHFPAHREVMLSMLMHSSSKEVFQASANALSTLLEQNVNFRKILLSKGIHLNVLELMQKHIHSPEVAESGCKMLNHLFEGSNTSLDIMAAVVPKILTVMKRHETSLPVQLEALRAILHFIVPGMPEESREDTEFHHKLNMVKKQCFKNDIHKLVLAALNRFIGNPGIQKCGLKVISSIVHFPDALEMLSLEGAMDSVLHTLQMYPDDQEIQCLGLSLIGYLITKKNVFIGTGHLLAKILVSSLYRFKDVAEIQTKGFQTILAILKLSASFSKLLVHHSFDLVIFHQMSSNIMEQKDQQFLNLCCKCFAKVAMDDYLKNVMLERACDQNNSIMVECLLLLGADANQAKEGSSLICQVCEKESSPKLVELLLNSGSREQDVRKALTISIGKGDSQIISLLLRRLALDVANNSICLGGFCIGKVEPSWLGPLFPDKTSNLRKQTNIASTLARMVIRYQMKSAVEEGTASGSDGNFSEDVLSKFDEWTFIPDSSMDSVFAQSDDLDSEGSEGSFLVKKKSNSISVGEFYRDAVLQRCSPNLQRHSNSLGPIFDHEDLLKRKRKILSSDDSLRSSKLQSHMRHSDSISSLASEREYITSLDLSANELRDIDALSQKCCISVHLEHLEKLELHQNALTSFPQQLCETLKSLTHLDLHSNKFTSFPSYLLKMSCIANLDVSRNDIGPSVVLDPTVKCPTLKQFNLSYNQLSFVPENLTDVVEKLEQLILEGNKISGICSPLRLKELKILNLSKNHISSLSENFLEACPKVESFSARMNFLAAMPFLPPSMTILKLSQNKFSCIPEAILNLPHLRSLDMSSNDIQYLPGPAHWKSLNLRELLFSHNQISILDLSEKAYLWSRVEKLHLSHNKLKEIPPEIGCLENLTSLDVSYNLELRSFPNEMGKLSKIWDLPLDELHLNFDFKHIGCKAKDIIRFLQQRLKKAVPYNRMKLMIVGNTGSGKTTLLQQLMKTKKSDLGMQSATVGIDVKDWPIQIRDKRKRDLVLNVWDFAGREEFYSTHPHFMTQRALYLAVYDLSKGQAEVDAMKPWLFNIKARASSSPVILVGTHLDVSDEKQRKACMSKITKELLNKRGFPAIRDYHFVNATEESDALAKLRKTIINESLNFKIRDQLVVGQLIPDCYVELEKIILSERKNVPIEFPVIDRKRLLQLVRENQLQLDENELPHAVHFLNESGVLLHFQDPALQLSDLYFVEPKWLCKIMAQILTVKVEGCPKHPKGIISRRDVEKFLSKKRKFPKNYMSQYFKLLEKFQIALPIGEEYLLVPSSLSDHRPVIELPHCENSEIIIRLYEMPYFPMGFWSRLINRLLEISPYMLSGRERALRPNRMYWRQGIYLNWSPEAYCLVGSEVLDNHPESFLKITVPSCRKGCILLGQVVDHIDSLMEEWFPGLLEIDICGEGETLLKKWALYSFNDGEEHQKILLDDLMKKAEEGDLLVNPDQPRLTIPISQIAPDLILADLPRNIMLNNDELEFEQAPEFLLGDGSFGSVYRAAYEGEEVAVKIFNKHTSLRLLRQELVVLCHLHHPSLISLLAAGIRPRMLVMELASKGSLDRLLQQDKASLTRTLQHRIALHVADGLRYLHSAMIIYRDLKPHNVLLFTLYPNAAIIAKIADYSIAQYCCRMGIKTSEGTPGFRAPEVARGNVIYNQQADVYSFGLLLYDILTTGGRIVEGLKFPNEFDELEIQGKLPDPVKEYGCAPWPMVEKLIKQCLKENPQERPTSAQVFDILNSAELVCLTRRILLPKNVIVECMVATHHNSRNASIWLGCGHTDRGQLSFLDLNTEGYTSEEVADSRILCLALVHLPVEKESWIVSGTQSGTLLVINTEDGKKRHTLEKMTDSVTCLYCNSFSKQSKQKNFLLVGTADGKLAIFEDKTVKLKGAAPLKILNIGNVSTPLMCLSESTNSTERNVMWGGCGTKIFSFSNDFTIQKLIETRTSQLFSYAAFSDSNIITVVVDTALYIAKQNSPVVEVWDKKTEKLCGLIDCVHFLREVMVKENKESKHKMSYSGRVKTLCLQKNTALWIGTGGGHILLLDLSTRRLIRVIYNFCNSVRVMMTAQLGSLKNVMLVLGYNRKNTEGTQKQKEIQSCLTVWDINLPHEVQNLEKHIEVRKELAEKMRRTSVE

The target of test [2] is T1, LRRK2. In words: LRRK2 KI determination. In kind it is biochemical.
Target sequence in this assay (Q5S007 970-2527): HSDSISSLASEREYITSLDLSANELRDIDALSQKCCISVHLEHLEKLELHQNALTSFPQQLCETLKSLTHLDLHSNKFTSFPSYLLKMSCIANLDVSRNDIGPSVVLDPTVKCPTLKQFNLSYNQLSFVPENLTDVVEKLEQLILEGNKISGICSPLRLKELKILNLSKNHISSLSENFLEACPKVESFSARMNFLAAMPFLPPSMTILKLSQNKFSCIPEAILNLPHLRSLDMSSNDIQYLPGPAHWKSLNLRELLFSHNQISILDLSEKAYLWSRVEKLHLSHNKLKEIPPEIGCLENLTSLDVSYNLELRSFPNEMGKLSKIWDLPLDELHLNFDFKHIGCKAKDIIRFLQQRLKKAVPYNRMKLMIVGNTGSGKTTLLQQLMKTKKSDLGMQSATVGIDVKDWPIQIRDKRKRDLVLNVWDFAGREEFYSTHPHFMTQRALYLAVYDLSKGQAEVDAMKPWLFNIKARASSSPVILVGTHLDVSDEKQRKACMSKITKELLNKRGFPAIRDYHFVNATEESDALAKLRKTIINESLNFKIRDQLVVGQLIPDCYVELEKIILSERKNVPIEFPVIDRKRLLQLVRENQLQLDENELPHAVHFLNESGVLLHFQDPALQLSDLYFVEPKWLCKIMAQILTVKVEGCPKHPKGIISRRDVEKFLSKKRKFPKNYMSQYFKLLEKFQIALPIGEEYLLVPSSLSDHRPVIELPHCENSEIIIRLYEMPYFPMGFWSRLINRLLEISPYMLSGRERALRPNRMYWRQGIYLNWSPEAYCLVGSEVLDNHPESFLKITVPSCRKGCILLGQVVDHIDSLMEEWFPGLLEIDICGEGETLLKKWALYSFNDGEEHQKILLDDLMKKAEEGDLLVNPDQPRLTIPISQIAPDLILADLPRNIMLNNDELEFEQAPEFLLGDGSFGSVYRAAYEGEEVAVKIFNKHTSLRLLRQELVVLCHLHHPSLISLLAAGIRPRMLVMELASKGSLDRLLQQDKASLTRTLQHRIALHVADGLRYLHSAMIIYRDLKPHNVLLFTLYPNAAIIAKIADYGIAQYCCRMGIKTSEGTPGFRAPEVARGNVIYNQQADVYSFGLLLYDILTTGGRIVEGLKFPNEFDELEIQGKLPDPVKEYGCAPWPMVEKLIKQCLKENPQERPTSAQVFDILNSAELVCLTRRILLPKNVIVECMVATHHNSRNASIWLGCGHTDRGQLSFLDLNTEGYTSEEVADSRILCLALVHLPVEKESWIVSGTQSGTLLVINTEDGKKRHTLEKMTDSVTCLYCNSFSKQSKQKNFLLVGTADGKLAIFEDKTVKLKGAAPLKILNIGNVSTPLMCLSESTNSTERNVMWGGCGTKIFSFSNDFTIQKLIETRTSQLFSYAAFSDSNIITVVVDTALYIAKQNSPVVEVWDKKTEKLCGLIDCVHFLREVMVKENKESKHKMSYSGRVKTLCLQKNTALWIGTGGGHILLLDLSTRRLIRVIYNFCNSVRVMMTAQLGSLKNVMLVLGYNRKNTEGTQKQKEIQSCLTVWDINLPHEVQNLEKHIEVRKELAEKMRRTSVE

As to `Cc1cc2[nH]nc(C)c2c(OC2CCCCC2)n1` [Example 6], the IC50 at LRRK2 [1] was 100 to 1000 nM. Consider `CNC(=O)c1cccc(-c2[nH]nc3cc(C)nc(OC)c23)c1` [Example 21, 3-(4-Methoxy-6-methyl-1H-pyrazolo[4,3-c]pyridin-3-yl)-N-methylbenzamide], for which, at LRRK2 [2], the Ki was 100 to 1000 nM. Consider `Cc1n[nH]c2cncc(OC3CCCCC3)c12` [Example 10], for which, on LRRK2 [1], the IC50 lay in the range of 100 to 1000 nM.

Regarding `Cc1cc2[nH]nc(-c3cc(C(F)(F)F)ccn3)c2c(NC2CCOCC2)n1` [Example 18, 6-methyl-N-(tetrahydro-2H-pyran-4-yl)-3-(4-(trifluoromethyl)pyridin-2-yl)-1H-pyrazolo[4,3-c]pyridin-4-amine], on LRRK2 [2], the Ki was under 100 nM.

`COc1nc(C)cc2[nH]nc(-c3cnn(C4CCOCC4)c3)c12` [Example 25, 4-Methoxy-6-methyl-3-(1-(tetrahydro-2H-pyran-4-yl)-1H-pyrazol-4-yl)-1H-pyrazolo[4,3-c]pyridine]: at LRRK2 [2], the Ki is under 100 nM. On to `Cc1n[nH]c2cc(-c3cnn(C)c3)nc(OC3CCCCC3)c12` [Example 4], for which the IC50 at LRRK2 [1] was in the range of 1000 to 10000 nM.

`Cc1[nH]nc2cc(C3CC3)nc(OC3CCCCC3)c12` [Example 14, 4-(cyclohexyloxy)-6-cyclopropyl-3-methyl-1H-pyrazolo[4,3-c]pyridine]: the Ki at LRRK2 [2] was in the range of 100 to 1000 nM. Take `Cc1cc2[nH]nc(-c3cnn(C4CCOCC4)c3)c2c(OC2CCOCC2)n1` [Example 24, 6-Methyl-3-(1-(tetrahydro-2H-pyran-4-yl)-1H-pyrazol-4-yl)-4-(tetrahydro-2H-pyran-4-yloxy)-1H-pyrazolo[4,3-c]pyridine]: the inhibitory constant (Ki) on LRRK2 [2] was under 100 nM. `Cc1cc2[nH]nc(C)c2c(-c2ccco2)n1` [Example 7]: on LRRK2 [1], the 50% inhibitory concentration (IC50) lay within 100 to 1000 nM.

On to `Cc1cc2[nH]nc(-c3ccnc(N4CCOCC4)c3)c2c(OC2CCOCC2)n1` [Example 22, 4-(4-(6-Methyl-4-(tetrahydro-2H-pyran-4-yloxy)-1H-pyrazolo[4,3-c]pyridin-3-yl)pyridin-2-yl)morpholine], for which the Ki at LRRK2 [2] is under 100 nM. The same measure, in the same setting: the value for `CC(C)n1cc(-c2n[nH]c3cc(C(F)(F)F)nc(OC4CCOCC4)c23)cn1` [Example 15, 3-(1-isopropyl-1H-pyrazol-4-yl)-4-(tetrahydro-2H-pyran-4-yloxy)-6-(trifluoromethyl)-1H-pyrazolo[4,3-c]pyridine] was under 100 nM. For the compound `Cc1n[nH]c2cc(Cl)nc(OC3CCCCC3)c12` [Example 2], the IC50 on LRRK2 [1] is 100 to 1000 nM. Compound `CCOc1cc(-c2n[nH]c3cc(C)nc(NC4CCOCC4)c23)ncn1` [Example 17, 3-(6-ethoxypyrimidin-4-yl)-6-methyl-N-(tetrahydro-2H-pyran-4-yl)-1H-pyrazolo[4,3-c]pyridin-4-amine] showed an inhibition constant Ki at LRRK2 [2] of under 100 nM. In turn, `Cc1cc2[nH]nc(-c3cc(C(F)(F)F)ncn3)c2c(NC2CCOCC2)n1` [Example 19, 6-methyl-N-(tetrahydro-2H-pyran-4-yl)-3-(6-(trifluoromethyl)pyrimidin-4-yl)-1H-pyrazolo[4,3-c]pyridin-4-amine] displayed a Ki on LRRK2 [2] of under 100 nM.

For `Cc1n[nH]c2cc(Cl)nc(NC3CCCCC3)c12` [Example 1], on LRRK2 [1], the IC50 was in the range of 100 to 1000 nM. Same read-out and setting: the figure for `Cc1n[nH]c2cncc(-c3ccco3)c12` [Example 8] is 100 to 1000 nM. Regarding `Clc1cc2[nH]nc(-c3ccnc(N4CCOCC4)c3)c2c(OC2CCOCC2)n1` [Example 12, 4-(4-(6-chloro-4-(tetrahydro-2H-pyran-4-yloxy)-1H-pyrazolo[4,3-c]pyridin-3-yl)pyridin-2-yl)morpholine], the inhibitory constant (Ki) at LRRK2 [2] was under 100 nM. In turn, `Cc1cc2[nH]nc(-c3cc(C(=O)N(C)C)ccn3)c2c(NC2CCOCC2)n1` [Example 16, N,N-dimethyl-2-(6-methyl-4-(tetrahydro-2H-pyran-4-ylamino)-1H-pyrazolo[4,3-c]pyridin-3-yl)isonicotinamide] had a Ki at LRRK2 [2] of 100 to 1000 nM. For the compound `Cc1n[nH]c2cc(N3CCOCC3)nc(OC3CCCCC3)c12` [Example 3], the half-inhibitory concentration (IC50) at LRRK2 [1] lay in the range of 1000 to 10000 nM. `COc1nc(C)cc2[nH]nc(-c3ccnc(N4CCOCC4)c3)c12` [Example 20, 4-(4-(4-methoxy-6-methyl-1H-pyrazolo[4,3-c]pyridin-3-yl)pyridin-2-yl)morpholine] displayed a Ki on LRRK2 [2] of 100 to 1000 nM. `Cc1n[nH]c2cncc(NC3CCCCC3)c12` [Example 9]: the IC50 on LRRK2 [1] was in the range of 100 to 1000 nM. On to `Cc1cc2[nH]nc(C)c2c(NC2CCCCC2)n1` [Example 5], for which the IC50 on LRRK2 [1] lay in the range of 1000 to 10000 nM. For the compound `N#Cc1cc2[nH]nc(-c3ccnc(N4CCOCC4)c3)c2c(OC2CCOCC2)n1` [Example 13], the Ki on LRRK2 [2] is 100 to 1000 nM. Still for that read-out and setting: the value for `CC(C)Cn1cc(-c2n[nH]c3cc(C#N)nc(OC4CCOCC4)c23)cn1` [Example 11, 3-(1-isobutyl-1H-pyrazol-4-yl)-4-(tetrahydro-2H-pyran-4-yloxy)-1H-pyrazolo[4,3-c]pyridine-6-carbonitrile] was under 100 nM; that for `CNC(=O)c1cccc(-c2[nH]nc3cc(C)nc(OC4CCOCC4)c23)c1` [Example 23, N-Methyl-3-(6-Methyl-4-(tetrahydro-2H-pyran-4-yloxy)-1H-pyrazolo[4,3-c]pyridin-3-yl)benzamide] was 100 to 1000 nM.

For the origin of these results see patent publication US20130267513A1, “PYRAZOLOPYRIDINES AS INHIBITORS OF THE KINASE LRRK2” (priority 2010, published 2013).
